Reference: BindingDB's records for doi:10.1021/bi00098a028 (Arizona State University, 1991)

Target: T1, Purine nucleoside phosphorylase (Homo sapiens, UniProt P00491)
T1 sequence (P00491 whole entry): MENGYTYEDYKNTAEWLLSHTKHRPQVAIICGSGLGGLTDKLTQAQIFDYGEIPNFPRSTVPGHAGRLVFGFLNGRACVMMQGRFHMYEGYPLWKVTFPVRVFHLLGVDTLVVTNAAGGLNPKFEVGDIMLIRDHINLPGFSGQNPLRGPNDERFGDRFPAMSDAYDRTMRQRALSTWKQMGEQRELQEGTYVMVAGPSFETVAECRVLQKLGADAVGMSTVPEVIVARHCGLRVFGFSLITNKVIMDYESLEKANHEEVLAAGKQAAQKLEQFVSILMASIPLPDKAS
Assay: Competitive Inhibition Assay
Excerpt: PNPase activity (guanosine to guanine and ribose 1-phosphate) was followed by measuring the decrease in absorbance at 268nm.

Row | SMILES | Ki [µM]
1 | Nc1cccc2nc[nH]c(=O)c12 [Substituted Quinazolin-4(3H)-one, 9] | 337
2 | O=c1[nH]cnc2c(O)ccc(O)c12 [Substituted Quinazolin-4(3H)-one, 11] | 142
3 | Cc1cc(O)c2nc[nH]c(=O)c2c1 [Substituted Quinazolin-4(3H)-one, 12] | 618
4 | O=c1[nH]cnc2cccc(O)c12 [Substituted Quinazolin-4(3H)-one, 13] | 576
5 | O=c1[nH]cnc2c(O)cccc12 [Substituted Quinazolin-4(3H)-one, 14] | 593
6 | Nc1ccc(O)c2c(=O)[nH]cnc12 [Substituted Quinazolin-4(3H)-one, 15] | 131
